# Reference: patent publication US20160040215A1, “Methods for Pathogen Detection and Enrichment from Materials and Compositions” (priority 2013, published 2016)
# Read-outs that look alike come from different tables or passages of the source.
# Assays:
# ethanol treated spores = experiment: Germination of ethanol treated spores with germinants, CFU on plate media; details: 2 ug/ml; plated on Sweet B or M2GSC media, single donor, FIG. 9
# [1] = system: viable cells of fecal suspension
# [2] = system: M. morganii and P. pennerii isolates; experiment: microbe, parasite or virus in culture; format: cell-based
compound,measurement,setting,value
lysozyme,"effect of addition to the plates on CFU, in words",ethanol treated spores,small effect
"CCO [Ethanol, ethanol]",reduction of the number of viable cells,[1],approximately 4 logs
C[C@@H](O)[C@H]1C(=O)N2C(C(=O)O)=C(SCCN=CN)C[C@H]12 [imipenem],MIC,[2],4 to 8 µg/mL
same,MIC,[2]; Morganella morganii,2 to 4 µg/mL
